Data taken from US20050164929A1, “Methods of preventing and treating inflammatory bowel disease” (LUPINE LOGIC, INC., priority 2000, published 2005).

Key:
[1] = system: NIH 3T3 murine embryonic lung fibroblasts; test: BrdU incorporation (Studies L-117.01/02); format: cell-based, mouse; settings: NIH 3T3, BrdU
Method: FIG. 19. […] Serum starved NIH 3T3 cells were treated with purified CG53135-01 (CG53135 in figure), 10% serum or vehicle only (control). DNA synthesis was measured in triplicate for each sample, using a BrdU incorporation assay. Data points represent average BrdU incorporation and bars represent standard error (SE).
(§1) Heterologous Protein Expression: CG53135-01 (batch 4A and 6) was used in these experiments. Protein was expressed using Escherichia coli (E. coli), BL21 (Novagen, Madison, Wis.), transformed with full-length CG53135-01 in a pETMY-hFGF20X/BL21 expression vector. Cells were harvested and disrupted, and then the soluble protein fraction was clarified by filtration and passed through a metal chelation column. The final protein fraction was dialyzed against phosphate buffered saline (PBS) plus 1 M L-arginine. Protein samples were stored at −70° C.
BrdU Incorporation: proliferative activity was measured by treatment of serum-starved cultured cells with a given agent and measurement of BrdU incorporation during DNA synthesis. Cells were cultured in respective manufacturer recommended basal growth medium supplemented with 10% fetal bovine serum or 10% calf serum as per manufacturer recommendations. Cells were grown in 96-well plates to confluence at 37° C. in 10% CO2/air (to subconfluence at 5% CO2 for dedifferentiated chondrocytes and NHOst). […]

HUVECS [2] = test: Tube formation; format: cell-based, human; settings: HUVEC
endothelial cells = test: Proliferation summary for variants; format: cell-based; settings: in vitro
Method: (§2) Experiments were performed to evaluate the proliferative response of representative cell types to CG53135, e.g., a full-length tagged variant (CG53135-01), a deletion variant (CG53135-02), and a full-length codon-optimized untagged variant (CG53135-05).
(§3) CG53135-02 (batch 1 and 13) was also used in these experiments. Protein was expressed in E. coli, BLR (DE3) (Novagen), transformed with the deletion variant CG53135-02 inserted into a pET24a vector (Novagen). A research cell bank (RCB) was produced and cell paste containing CG53135-02 was produced by fermentation of cells originating from the RCB. Cell membranes were disrupted by high-pressure homogenization, and lysate was clarified by centrifugation. CG53135-02 was purified by ion exchange chromatography. The final protein fraction was dialyzed against the formulation buffer (100 mM citrate, 1 mM ethylenediaminetetraacetic acid (EDTA), and 1 M L-arginine).
(§4) CG53135-05, DEV10, which were also used in these experiments, was prepared by Cambrex Biosciences (Hopkinton, Mass.) according to Process 1 as described in Section 6.18.1, infra.
(§5) BrdU Incorporation: proliferative activity was measured by treatment of serum-starved cultured cells with a given agent and measurement of BrdU incorporation during DNA synthesis. Cells were cultured in respective manufacturer recommended basal growth medium supplemented with 10% fetal bovine serum or 10% calf serum as per manufacturer recommendations. Cells were grown in 96-well plates to confluence at 37° C. in 10% CO2/air (to subconfluence at 5% CO2 for dedifferentiated chondrocytes and NHOst). Cells were then starved in respective basal growth medium for 24-72 hours. CG53135 protein purified from E. coli or pCEP4/Sec or pCEP4/Sec-FGF 20× enriched conditioned medium was added (10 μL/100 μL of culture) for 18 hours. BrdU (10 μM final concentration) was then added and incubated with the cells for 5 hours. BrdU incorporation was assayed according to the manufacturer's specifications (Roche Molecular Biochemicals, Indianapolis, Ind.).
(§6) The above described experiments were also performed using CG53135-02 and CG53135-05 protein products, and the results are summarized in the Conclusion section below.

[3] = system: mesenchymal and epithelial cells; test: Proliferation summary for variants; format: cell-based; settings: in vitro
Method: as §2, §3, §4, §5, §6

[4] = system: Balb MK mouse keratinocytes; test: BrdU incorporation (Studies L-117.01/02); format: cell-based
From the text: as §1, §5

[5] = system: TF-1, an erythroblastic leukemia cell line; test: BrdU incorporation (Studies L-117.01/02); format: cell-based
From the text: as §1, §5

[6] = system: human aorta smooth muscle cells (HSMC); test: BrdU incorporation (Studies L-117.01/02); format: cell-based
From the text: as §1, §5

[7] = system: primary human osteoblasts (NHOst); test: BrdU incorporation (Studies L-117.01/02); format: cell-based
From the text: as §1, §5

[8] = system: mouse skeletal muscle cells; test: BrdU incorporation (Studies L-117.01/02); format: cell-based
From the text: as §1, §5

[9] = system: CCD 1106 KERTr human keratinocytes; test: BrdU incorporation (Studies L-117.01/02); format: cell-based
From the text: as §1, §5

[10] = system: human coronary artery smooth muscle cells; test: BrdU incorporation (Studies L-117.01/02); format: cell-based
From the text: as §1, §5

[11] = system: rabbit synoviocyte cell line, HIG-82; test: BrdU incorporation (Studies L-117.01/02); format: cell-based
From the text: as §1, §5

[12] = system: CCD-1070Sk normal human foreskin fibroblasts; test: BrdU incorporation (Studies L-117.01/02); format: cell-based
From the text: as §1, §5

[13] = system: Jurkat, an acute T-lymphoblastic leukemia cell line; test: BrdU incorporation (Studies L-117.01/02); format: cell-based
From the text: as §1, §5

[14] = system: human pulmonary artery smooth muscle cells; test: BrdU incorporation (Studies L-117.01/02); format: cell-based
From the text: as §1, §5

NIH 3T3 cells = test: Growth assay (cell count); format: cell-based, mouse; settings: 1 μg, 48 hours
Method: FIG. 20. CG53135 stimulates Growth of NIH 3T3 Fibroblasts. Duplicate wells of serum starved NIH 3T3 cells were treated for […] with purified CG53135-01 (1 ug) or vehicle control. Cell counts for each well were determined in duplicate. Y— axis identifies cell number, which is the average of 4 cell counts (treatment duplicates×duplicate counts) and standard error (SE).
Growth Assay: growth activity was obtained by measuring cell number following treatment of cultured cells with a given agent for a specified period of time. In general, cells grown to ˜20% confluency in 6-well dishes were treated with basal medium supplemented with CG53135 or control, incubated for several days, trypsinized and counted using a Coulter Z1 Particle Counter.
To determine if recombinant CG53135-01 sustained cell growth, NIH 3T3 cells were cultured with 1 μg CG53135-01 or control for 48 hours and then counted (FIG. 20). CG53135 induced an approximately 2-fold increase in cell number relative to control in this assay.

HUVECS [15] = test: VEGF induced cell migration; format: cell-based, human; settings: HUVEC
[16] = system: MG-63 osteosarcoma cell line; test: BrdU incorporation (Studies L-117.01/02); format: cell-based, human
From the text: as §1
as §5, with “BrdU incorporation was assayed according to the manufacturer's specifications (Roche Molecular Biochemicals, Indianapolis, Ind.).” left out

[17] = system: breast epithelial cell line, B5589; test: BrdU incorporation (Studies L-117.01/02); format: cell-based, human
From the text: as §1
as §5, with “BrdU incorporation was assayed according to the manufacturer's specifications (Roche Molecular Biochemicals, Indianapolis, Ind.).” left out

[18] = system: bovine aortic endothelial cells; test: Cell survival and BrdU incorporation in endothelial cells; format: cell-based; settings: BAEC
Method: as §5
(§7) Effects of CG53135 on Endothelial Cells: protein therapeutic agents may inhibit or promote angiogenesis, the process through which endothelial cells differentiate into capillaries. Because CG53135 belongs to the fibroblast growth factor family, some members of which have angiogenic properties, the antiangiogenic or pro-angiogenic effects of CG53135 on endothelial cell lines were evaluated. The following cell lines were chosen because they are cell types used in understanding angiogenesis in cancer: HUVEC (human umbilical vein endothelial cells), BAEC (bovine aortic endothelial cells), HMVEC-d (human endothelial, dermal capillary). These endothelial cell types undergo morphogenic differentiation and are representative of large vessel (HUVEC, BAEC) as well as capillary endothelial cells (HMVEC-d).

[19] = system: human dermal microvascular endothelial cells; test: as above; format: cell-based; settings: HMVEC-d
Method: as §5, §7

[20] = system: human umbilical vein endothelial cells; test: as above; format: cell-based; settings: HUVEC
Method: as §5, §7

## CG53135-01: FGF-20 wild type, stop codon removed; SEQ ID NOs 1 and 2; expressed as tagged full-length variant
[1]
  half maximal concentration for induction of DNA synthesis: ~10 ng/mL
  induction of DNA synthesis: dose-dependent manner
HUVECS [2]
  tube formation: did not inhibit tube formation
Endothelial cells
  proliferation of endothelial cells: not
[3]
  proliferation of mesenchymal and epithelial cells: induces a proliferative response
[4]
  induction of DNA synthesis: induced DNA synthesis
[5]
  effect on DNA synthesis: no stimulatory effect
[6]
  induction of DNA synthesis: did not induce any significant increase in DNA synthesis
[7]
  induction of DNA synthesis: did not induce any significant increase in DNA synthesis
[8]
  induction of DNA synthesis: did not induce any significant increase in DNA synthesis
[9]
  induction of DNA synthesis: induced DNA synthesis
[10]
  induction of DNA synthesis: did not induce any significant increase in DNA synthesis
[11]
  induction of DNA synthesis: induced DNA synthesis
[12]
  induction of DNA synthesis: induced DNA synthesis
[13]
  BrdU incorporation response: did not show any response
[14]
  induction of DNA synthesis: did not induce any significant increase in DNA synthesis
NIH 3T3 cells
  increase in cell number relative to control: approximately 2 fold
HUVECS [15]
  VEGF induced cell migration: had no effect
[16]
  induction of DNA synthesis: induced DNA synthesis
[17]
  induction of DNA synthesis: induced DNA synthesis
[18]
  cell survival and BrdU incorporation: did not alter cell survival or have stimulatory effects on BrdU incorporation
[19]
  cell survival and BrdU incorporation: did not alter cell survival or have stimulatory effects on BrdU incorporation
[20]
  cell survival and BrdU incorporation: did not alter cell survival or have stimulatory effects on BrdU incorporation
